Data set [1] concerns MC-38. The experiment in a line: Induction of conversion of M2-macrophages to the M1 phenotype in CM of MC38 cells treated C57BL/6 mouse BMDM cells transfected with CSF1R shRNA2 assessed as decrease in Tnf mRNA expression measured after 24 hrs by qPCR analysis. The data set is classed as functional, cell-based.
Data set [2] concerns the target T1, Macrophage colony-stimulating factor 1 receptor (Mus musculus) (UniProt P09581).
T1 sequence (whole entry): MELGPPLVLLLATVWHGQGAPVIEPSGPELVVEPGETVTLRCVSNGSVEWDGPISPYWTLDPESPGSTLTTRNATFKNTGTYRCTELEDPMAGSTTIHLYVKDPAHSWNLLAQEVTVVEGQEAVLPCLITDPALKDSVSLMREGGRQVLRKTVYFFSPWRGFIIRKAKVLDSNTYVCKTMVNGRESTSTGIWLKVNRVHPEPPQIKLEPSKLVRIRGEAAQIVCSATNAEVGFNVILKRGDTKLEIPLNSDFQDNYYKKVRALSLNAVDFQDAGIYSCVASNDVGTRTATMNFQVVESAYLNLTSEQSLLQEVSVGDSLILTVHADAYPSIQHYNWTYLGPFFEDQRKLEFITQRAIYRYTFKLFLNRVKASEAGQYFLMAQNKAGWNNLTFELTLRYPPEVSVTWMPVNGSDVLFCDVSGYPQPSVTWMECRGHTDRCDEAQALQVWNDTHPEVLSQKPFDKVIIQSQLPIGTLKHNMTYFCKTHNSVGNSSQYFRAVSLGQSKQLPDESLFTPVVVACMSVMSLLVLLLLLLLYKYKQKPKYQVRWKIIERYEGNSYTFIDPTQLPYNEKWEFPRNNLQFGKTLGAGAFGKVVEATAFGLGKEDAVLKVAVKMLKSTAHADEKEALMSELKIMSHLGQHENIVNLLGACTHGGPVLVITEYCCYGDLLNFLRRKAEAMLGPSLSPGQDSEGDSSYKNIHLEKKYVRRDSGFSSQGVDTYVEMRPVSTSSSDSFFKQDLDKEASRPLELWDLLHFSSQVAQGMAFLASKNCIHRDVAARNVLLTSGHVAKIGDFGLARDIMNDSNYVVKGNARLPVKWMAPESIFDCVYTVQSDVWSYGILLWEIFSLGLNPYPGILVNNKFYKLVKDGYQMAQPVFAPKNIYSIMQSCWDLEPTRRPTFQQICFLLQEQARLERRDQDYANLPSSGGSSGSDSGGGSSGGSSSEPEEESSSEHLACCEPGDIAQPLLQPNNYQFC
The experiment in a line: Inhibition of CSF-1R signaling pathway in C57BL/6 mouse BMDM cells assessed as reduction in M-CSF induced CSF-1R phosphorylation at 100 nM preincubated for 12 hrs followed by M-CSF stimulation for 30 mins by Western blot analysis. It counts as cell-based.

Data set [3] has as its system BMDM. Briefly: Induction of conversion of M2-macrophages to the M1 phenotype in CM of MC38 cells treated C57BL/6 mouse BMDM cells assessed as down regulation of Arg1 mRNA expression at 30 to 100 nM preincubated with culture medium of MC38 cells for 24 hrs followed by compound addition and measured after 24 hrs by qPCR analysis. The data set is classed as functional, cell-based. The conditions noted are these: dose 30-100 nM.

In data set [4] the test system is BMDM. The experiment in a line: Induction of conversion of M2-macrophages to the M1 phenotype in CM of MC38 cells treated C57BL/6 mouse BMDM cells assessed as down regulation of Chil3 mRNA expression at 30 to 100 nM preincubated with culture medium of MC38 cells for 24 hrs followed by compound addition and measured after 24 hrs by qPCR analysis. It counts as functional, cell-based. The conditions noted are these: dose 30-100 nM.

Data set [5] concerns THP-1. Briefly: Induction of conversion of M2-macrophages to the M1 phenotype in CM of HCT116 cells treated […]-differentiated human THP-1 cells assessed as down regulation of Il10 mRNA expression at 30 to 100 nM incubated for 24 hrs by qPCR analysis. It counts as functional, cell-based. The conditions noted are these: dose 30-100 nM.
In data set [6] the test system is THP-1. The experiment in a line: Induction of conversion of M2-macrophages to the M1 phenotype in CM of HCT116 cells treated […]-differentiated human THP-1 cells assessed as down regulation of Chil3 mRNA expression at 30 to 100 nM incubated for 24 hrs by qPCR analysis. The data set is classed as functional, cell-based. Particulars: dose 30-100 nM.
The subject of data set [7] is THP-1. Briefly: Induction of conversion of M2-macrophages to the M1 phenotype in CM of HCT116 cells treated […]-differentiated human THP-1 cells assessed as down regulation of Vegf mRNA expression at 30 to 100 nM incubated for 24 hrs by qPCR analysis. It counts as functional, cell-based. The conditions noted are these: dose 30-100 nM.
Data set [8] concerns THP-1. The experiment in a line: Induction of conversion of M2-macrophages to the M1 phenotype in CM of HCT116 cells treated […]-differentiated human THP-1 cells assessed as upregulation of Nos2 mRNA expression at 30 to 100 nM incubated for 24 hrs by qPCR analysis. It counts as functional, cell-based. Particulars: dose 30-100 nM.
Data set [9] has as its system MC-38. Briefly: Antiproliferative activity against mouse MC38 cells cultured with culture medium of M2-macrophages assessed as reduction in cell viability at 10 to 100 nM incubated for 24 hrs by CCK-8 assay. The conditions noted are these: dose 10-100 nM. The data set is classed as functional, cell-based.
Data set [10] relates to HCT-116. Briefly: Antiproliferative activity against human HCT116 cells cultured with culture medium of M2-macrophages assessed as reduction in cell viability at 10 to 100 nM incubated for 24 hrs by CCK-8 assay. Particulars: dose 10-100 nM. The data set is classed as functional, cell-based.
Data set [11] deals with MC-38. Briefly: Induction of conversion of M2-macrophages to the M1 phenotype in CM of MC38 cells treated C57BL/6 mouse BMDM cells transfected with CSF1R shRNA2 assessed as decrease in Nos2 mRNA expression measured after 24 hrs by qPCR analysis. The data set is classed as functional, cell-based.
Data set [12] has as its system Mus musculus. The experiment in a line: Toxicity in C57BL/6 mouse allografted with mouse MC38 cells assessed as liver damage at 5 to 20 mg/kg, po administered every day for 2 weeks by histopathological analysis. It counts as organism-based, MC-38. Particulars: in vivo, 336 h, dose 5-20 mg/kg.
Data set [13] relates to Mus musculus. The experiment in a line: Toxicity in C57BL/6 mouse allografted with mouse MC38 cells assessed as heart damage at 5 to 20 mg/kg, po administered every day for 2 weeks by histopathological analysis. The data set is classed as organism-based, MC-38. The conditions noted are these: in vivo, 336 h, dose 5-20 mg/kg.
Data set [14] has as its system Mus musculus. The experiment in a line: Toxicity in C57BL/6 mouse allografted with mouse MC38 cells assessed as kidney damage at 5 to 20 mg/kg, po administered every day for 2 weeks by histopathological analysis. The data set is classed as organism-based, MC-38. Particulars: in vivo, 336 h, dose 5-20 mg/kg.
In data set [15] the test system is MC-38. The experiment in a line: Antitumor activity against mouse MC38 cells allografted in C57BL6 mouse assessed as decrease in Vegf mRNA expression at 10 to 20 mg/kg, po administered daily for 2 weeks by qPCR analysis. The data set is classed as functional, organism-based. Particulars: dose 10-20 mg/kg.
For data set [16], the system named is MC-38. The experiment in a line: Antitumor activity against mouse MC38 cells allografted in C57BL6 mouse assessed as decrease in chil3 mRNA expression at 10 to 20 mg/kg, po administered daily for 2 weeks by qPCR analysis. The conditions noted are these: dose 10-20 mg/kg. It counts as functional, organism-based.
In data set [17] the test system is MC-38. Briefly: Antitumor activity against mouse MC38 cells allografted in C57BL6 mouse assessed as increase in Tnf mRNA expression at 10 to 20 mg/kg, po administered daily for 2 weeks by qPCR analysis. It counts as functional, organism-based. The conditions noted are these: dose 10-20 mg/kg.
In data set [18] the test system is MC-38. Briefly: Antitumor activity against mouse MC38 cells allografted in C57BL6 mouse assessed as increase in Il6 mRNA expression at 10 to 20 mg/kg, po administered daily for 2 weeks by qPCR analysis. It counts as functional, organism-based. Particulars: dose 10-20 mg/kg.
For data set [19], the system named is MC-38. Briefly: Antitumor activity against mouse MC38 cells allografted in macrophage depleted C57BL6 mouse at 20 mg/kg, po administered daily for 2 weeks. The data set is classed as functional, organism-based.

Drawing on ChEMBL document CHEMBL5055668 (J Med Chem, 2021), this text covers Activity and inhibition for 1 molecule.

Calls of active or inactive are those of the source. The calls are words filed in the database; no cut-off is given here.

Turning to `Cc1[nH]c(/C=C2\C(=O)Nc3cc(NC(=O)Nc4cc(C(C)(C)C)on4)ccc32)c(C)c1NC(=O)CN1CCN(C)CC1`, the result in data set [1], in data set [3], in data set [4], in [5], in data set [6] and in data set [7] was Active. The result in data set [8], in data set [9], in data set [10], in data set [11], in [15] and in data set [16] was Active. Moreover, the outcome in data set [17] and in [18] was Active. Further, the inhibition result in data set [2] was “Active”. Further, the Activity entry in data set [12], in data set [13] and in data set [14] was “Non-Toxic” throughout. For the same molecule, the result in data set [19] was inactive.
